Columns and labels:
[1] = target: NA of A/Osaka/180/2009 (O180r; NA H274Y) (Influenza A virus, UniProt C3W5S3, H275Y); type: biochemical, 2009 pandemic influenza A (H1N1) virus
[2] = target: NA of A/Vietnam/HN32060/2009 (VN32060r; NA H274Y) (Influenza A virus, UniProt C3W5S3, H275Y); type: biochemical, 2009 pandemic influenza A (H1N1) virus

## CC(=O)N[C@H]1[C@H]([C@H](O)[C@H](O)CO)OC(C(=O)O)=C[C@@H]1N=C(N)N [Zanamivir]
[1]
  IC50 value of O180r compared with O164s: comparable
[2]
  IC50 value of VN32060r compared with VN9727s: comparable

Source: publication PMC2928817 (PLoS Pathogens, 2010)
